Experimental data as given in patent US10548321B2 (priority 2009, dated 2020).
Where two headings read alike, the source gives them in different places.

System: Pyricularia oryzae
Format: cell-based
Conditions: single active, absorption at 405 nm 7 days after inoculation, 18° C

Question: CC1(C)C(C=C(Cl)Cl)C1C(=O)OC(C#N)c1cccc(Oc2ccccc2)c1 (stereo not drawn) [alpha-Cypermethrin, alpha-cypermethrin] was tested. Which Observed efficacy (1 ppm) did it give?
Answer: 1%

Question: For COC(=O)N(OC)c1ccccc1COc1ccn(-c2ccc(Cl)cc2)n1 [Pyraclostrobin, pyraclostrobin], which Observed efficacy (0.004 ppm) is on record?
Answer: 23%
